Series [1] relates to Mouse BALB/c monocyte macrophages, J774.2. The experiment in a line: Inhibition of β-amyloid induced activation: nitric oxide release (Griess assay). As to conditions: J774.2 cells, 20 μM Aβ(1-42), 50 U/ml Interferon gamma, 24 hours, read-out: IC50 (μM) NO release. The series is classed as cell-based. As to the method:
(§1) 1. Inhibition of β-amyloid Induced Activation.
(§2) Mouse BALB/c monocyte macrophages, J774.2, {ECACC 85011428} were grown and sub-cultured in cell media (DMEM containing 10% FBS, 1% L-glutamine and 1% penicillin/streptomycin). The J774 cells were plated at 100,000 cells/well in 50 μl cell media on 96 well plates and placed in a 37° C., 5% CO2 incubator overnight prior to experiments.
(§3) The addition of Aβ(1-42) and compounds to the J774 cells was performed using a Biotek precision 2000 liquid handling instrument. 3 μl of compound in DMSO ranging from 8 μM to 6 mM were pipetted into a “daughter plate” containing 294 μl of cell media and mixed thoroughly. 3 μl of Aβ(1-42) in DMSO at 4 mM was then added to the “daughter plate” and mixed thoroughly. 50 μl was then removed from the “daughter plate” and added to the plated J774 cells. The final concentrations in the wells containing 100 μl cell media were 20 μM Aβ(1-42), the compounds ranged from ˜40 nM to 30 μM in 1% DMSO and also in the presence of 50 U/ml Interferon gamma. The plates were incubated for 24 hours in a 37° C., 5% CO2 incubator. After 24 hours incubation the media from the wells were collected and stored at −20° C. until required for testing.
The nitric oxide levels in the media were tested using the Griess assay (Promega G2930) using the manufacturer's instructions.

Series [2] has the same test system. The experiment in a line: Inhibition of β-amyloid induced activation: TNF-alpha release (ELISA / Meso Scale Discovery). The series is classed as cell-based. Conditions: J774.2 cells, 20 μM Aβ(1-42), 50 U/ml Interferon gamma, 24 hours, read-out: IC50 (μM) TNF-α release. As to the method: as §1, §2, §3
The TNF-alpha levels in the media were tested using a TNF-alpha ELISA (R&D Systems MTA00) or Meso Scale Discovery MS6000 Mouse Proinflammatory-7 kit, using the manufacturers instructions.
A general note: ELISA stands for enzyme-linked immunosorbent assay.

The nature of a further series: Pharmacokinetic data. Conditions: in vivo; for bioavailability: oral.
Where [3] appears, read: iv, read-out: T1/2 i.v. (converted).
Where [4] appears, read: per oral, read-out: T1/2 per oral (converted).

Where two headings read alike, the source gives them in different places.

Consider `Cc1nc2ncnn2c2c1CCN2[C@@H](C)c1ccc(F)cc1` [Compound 1], for which the IC50 in series [1] amounted to 0.24 µM; in series [2], 0.48 µM. Also, the half-life in “Pharmacokinetic data” (setting [3]) was 0.87 h; in “Pharmacokinetic data” (setting [4]) it was 3.2 h. Further, in the series “Pharmacokinetic data”, the bioavailability is 98.5%.

As to `Cc1nc2ncnn2c2c1CCN2[C@H](C)c1ccccc1` [Compound 4, reference compound], the IC50 in series [2] was over 30 µM.

For `Cc1nc2ncnn2c2c1CCN2[C@@H](C)c1ccccc1` [reference compound], the half-life is 0.22 h in “Pharmacokinetic data” (setting [3]) and 2.4 h in the series “Pharmacokinetic data” (setting [4]). Further, in the series “Pharmacokinetic data”, the bioavailability turned out to be 34.5%.

In general, IC50 refers to the concentration at which inhibition is half-maximal. A word on the bioavailability: it is the share of a dose that reaches the circulation, judged against a reference dose that is usually intravenous. A low value points to poor availability.

The record behind these values is patent US20120289524A1, “PYRROLO [3,2-E] [1,2,4] TRIAZOLO [1,5-A] PYRIMIDINES DERIVATIVES AS INHIBITORS OF MICROGLIA ACTIVATION” (Senexis Limited, priority 2009, published 2012).
